Laboratory results from ChEMBL document CHEMBL4118037, “Lactone Derivatives Produced by a Phaeoacremonium sp., an Endophytic Fungus from Senna spectabilis” (J Nat Prod, 2017).

Columns and labels:
[1] = test system: Cladosporium sphaerospermum; assay: Antifungal activity against Cladosporium sphaerospermum (Perzig) SPC 491 assessed as detection limit for activity by bioautographic method; assay type: functional
HeLa = assay: Cytotoxicity against human HeLa cells assessed as reduction in cell viability by MTT assay; assay type: functional, cell-based
[2] = test system: Cladosporium cladosporioides; assay: Antifungal activity against Cladosporium cladosporioides (Fresen) Vries SPC 140 assessed as detection limit for activity by bioautographic method; assay type: functional

Row | Compound | Activity [1] [µg] | IC50 (HeLa) [µM] | Activity [2] [µg]
1 | CCCCCCC[C@H]1OC2=C(C(=O)[C@@H](C)O2)[C@@H](O)[C@]1(C)O | 5 | 50 | 5
2 | CCCCCCC[C@H]1OC2=C(C(=O)O[C@@H]2C)[C@@H](O)[C@]1(C)O | 5 | 100 | 5
3 | CCCCCCC[C@H]1OC2=C(C(=O)O[C@@H]2C)[C@@H](O)[C@@]1(C)O | 25 | > 100 | 25
4 | CC[C@@]1(O)C(=O)OCc2c1cc1n(c2=O)Cc2cc3ccccc3nc2-1 [CAMPTOTHECIN] |  | 0.12 | 
5 | NYSTATIN | 1 |  | 1
6 | CCCCCCC[C@H]1OC2=C(C(=O)O[C@@]2(C)O)[C@@H](O)[C@]1(C)O |  | > 100 | 
